Test results published in patent publication US8513195B2, “Treatment of mood and anxiety disorders” (priority 2008, dated 2013).

Assays:
mice [1] = conditions: described in the literature; cited from earlier work
mice [2] = assay: social defeat stress (SDS) test; assay type: in vivo, mouse; conditions: peptide 1 mg/kg; for SDS-induced social avoidance (time spend interacting, TSI): defeated mice, treated 15 or 21 days
Text: (A) Data represent means+/−SE of time spend interacting (TSI) with the cage, in the absence (non-hatched bars) or presence (hatched bars) of the target. When target is present, control mice engage in active social behaviour, seen as an increase of TSI (panel a), while vehicle-treated defeated mice (panel b; white bars) show lower TSI, indicating social avoidance.
In the social defeat stress test (SDS), mice were exposed repeatedly (2 week) to aggressive mice; controls were gently handled. Subsequently, the aggressors were removed. Mice were treated with vehicle or TAT-DEF-Elk1 (1 mg/kg) for 15 or 21 days, and then tested for SDS-induced social avoidance. The test box contained a perforated plastic cage that was empty for the first test session and that held a neutral mouse (target) for the second test session.

mice [3] = assay: mouse forced swimming test (FST); assay type: in vivo; conditions: i.p., peptide 90 min, desipramine (20 mg/kg) 30 min prior to test, last 4 min of 6-min test
Protocol: (§1) In these tests experimental animals are exposed to inescapable aversive situations (hanging by the tail, being into the water) and in response show alternate periods of agitation and immobility reflecting “attempts to escape” and ‘behavioural resignation” respectively.
(§2) The details of the experimental protocols used are as follows: mice were injected i.p. with vehicle, different doses of the peptide TAT-DEF-Elk-1, of a scrambled peptide (serving as control), of the MEK inhibitor SL327, or with the reference antidepressants fluoxetine (20 mg/kg) or desipramine (20 mg/kg), at appropriate time points before the test trial.
(§3) In the TST, each mouse was tested in an individual cubicle while suspended from a tail hanger with adhesive tape wrapped around its tail (1.5-2 cm from tip) 80 cm above the floor. The trial was conducted for 5 min, during which the duration of immobility was measured automatically (BIOSEB, France). For the FST, mice were placed in clear plastic cylinders (diameter 10 cm; height 25 cm) filled with water at 6 cm height (22-25° C.) for 6 min. A blinded observer scored the duration of immobility manually during the last 4 min of the 6-min test.

mice [4] = assay: mouse tail suspension test (TST); assay type: in vivo; conditions: i.p., peptide 90 min, desipramine and fluoxetine (20 mg/kg) 30 min prior to test, 5 min trial
Protocol: as §1, §2, §3

mice [5] = assay: unpredictable chronic mild stress paradigm (UCMS); assay type: in vivo, mouse; conditions: for UCMS-induced immobility in the TST / sucrose preference (% of sugar of total consumption): end of 3-week UCMS, peptide 1 mg/kg or fluoxetine 20 mg/kg once daily
Text: We have also assessed the effects of the TAT-DEF-Elk1 peptide in the unpredictable chronic mild stress paradigm ([…] is used as a pertinent model of depression with aetiological validity. In UCMS protocols animals are subjected for a long period to different non-anticipated stressors. Chronic exposure to stress results to a syndrome in mice that reproduces symptoms of depression, including increased resignation, anxiety-like behavior, decreased consumption of palatable food, and physiological changes. Chronic administration of compounds with antidepressant activity reverses these changes. The protocol that we have used consists of three weeks of UCMS, during which mice were subjected to various stressors according to a 'random' schedule. Body weight and coat state were assessed weekly, as markers of the progression of the UCMS-evoked syndrome. At the end of the 3 week period the emotional state of the mice was tested in behavioral tests of emotionality and of depression-like behaviors (FIG. 3A). Experimental groups of mice were as follows: (i) non-stressed mice: these were group housed and were handled and maintained under standard laboratory conditions (Group 1; FIG. 3B), (ii) stressed mice: these were maintained under standard laboratory conditions but were isolated in small individual cages. During the three week protocol they were exposed to three mild stressors per day. Stressed-mice were treated either with vehicle (Group 2; FIG. 3B), with the peptide (1 mg/kg; once daily), or with the reference antidepressant fluoxetine (20 mg/kg; once daily) (Group 3; FIG. 3B). Treatment with vehicle or compounds started at the beginning of the UCMS and lasted throughout the three week period. At the end of the UCMS paradigm, mice were tested for depressive-like responses, such as passivity and resignation measured as increased immobility in the tail suspension test and anhedonia measured as the preference to sucrose.

plasma corticosterone = plasma corticosterone after 30 min restraint stress (RIA); assay type: in vivo, C57BL/6J mice
Protocol: Data represent means+/−SE of plasma corticosterone in banal conditions (non-stressed, light grey bars) and immediately after a 30-min restraint stress (dark grey bars); vehicle or the TAT-DEF-Elk1 peptide were administered […] before the beginning of stress; *p<0.05 as compared to non-stressed; #p<0.05 as compared to vehicle-treated.
In the second experiment C57BL/6J mice (10 weeks old) were injected with TAT-DEF-Elk1 peptide or vehicle; 1 h30 after the injection the mice were subjected to a 30 min restraint stress i.e. mice were confined individually in a 50 ml Falcon tube in which a hole was made at the top for the mice to breathe. Mice were decapitated directly after restraint, blood was collected in 2 ml eppendorfs containing EDTA at 4° C. Samples were centrifuged for 15 min at 760 g, plasma was collected and corticosterone assessed using the Corticosterone Double Antibody 125-I RIA kit (MP BIOMEDICAL).

ERK = assay: tail suspension-induced ERK phosphorylation (immunochemistry); assay type: in vivo, mouse; conditions: 2 mg/kg, 1 h30 before 10 min TST; perfused 20 min after start
Protocol: (§4) In the first experiment, TAT-DEF-Elk-1 peptide (2 mg/kg) or vehicle were administrated 1 h30 before a 10 min tail suspension trial (TST). Mice were perfused 20 min after starting the TST test and phosphorylation of ERK and Elk1 was assessed with immunochemistry.

Elk1 = assay: tail suspension-induced Elk1 phosphorylation in medial prefrontal cortex (immunochemistry); assay type: in vivo, mouse; conditions: 2 mg/kg, 1 h30 before 10 min TST; perfused 20 min after start
Protocol: as §4

[6] = stressed mice, peptide 1 mg/kg once daily for three weeks

Question: Which “duration of administration after which antidepressant action in the SDS test” value (mice [1]) does the source give for CN(C)CCCN1c2ccccc2CCc2ccccc21 [imipramine] here?
Answer: Its value is 39 days.

Question: For CNCCCN1c2ccccc2CCc2ccccc21 [desipramine, reference compound], which “SDS-induced social avoidance (time spend interacting, TSI)” value (mice [2]) is on record?
Answer: Its value is “did not have any effect”.

Question: What about the “immobility in the FST” value (mice [3]) of the same molecule?
Answer: The value was “antidepressant-like effects similar to the classical antidepressant desipramine”.

Question: What about the “immobility in the TST” value (mice [4]) of the same molecule?
Answer: The value was “of similar magnitude of that of fluoxetine and desipramine”.

Question: Which results are given for CNCCC(Oc1ccc(C(F)(F)F)cc1)c1ccccc1 (stereo not shown) [fluoxetine, reference compound]?
Answer: UCMS-induced immobility in the TST (mice [5]): similarly to the reference antidepressant fluoxetine; sucrose preference (% of sugar of total consumption) (mice [5]): similarly to the reference antidepressant fluoxetine; immobility in the TST (mice [4]): of similar magnitude of that of fluoxetine and desipramine

Question: Which results are given for “GRKKRRQRRRPPSPAKLSFQFPSSGSAQVHI (selective peptide inhibitor of Elk-1 activation - TAT-DEF-Elk-1) [TAT-DEF-Elk-1 peptide]”?
Answer: stress induced elevation of plasma corticosterone (plasma corticosterone; immediately after 30-min restraint stress, injected 1 h30 before): markedly reduces stress induced-elevations in plasma level corticosterone; basal plasma level corticosterone (plasma corticosterone; non-stressed mice): does not affect basal plasma level corticosterone; SDS-induced social avoidance (time spend interacting, TSI) (mice [2]): fully reverses this behaviour; duration of administration after which active in the SDS test (mice [2]): 15 days; tail suspension-induced ERK phosphorylation (ERK): does not inhibit tail suspension-induced ERK phosphorylation; immobility in the FST (mice [3]): induced antidepressant-like effects in the FST; tail suspension-induced Elk1 phosphorylation in mPFCx (Elk1): reduces selectively tail suspension-induced Elk1 phosphorylation; UCMS-induced immobility in the TST (mice [5]): reduced UPMS-induced immobility in the TST; sucrose preference (% of sugar of total consumption) (mice [5]): fully restored UCMS-blunted sucrose preference; UCMS-induced body weight loss (mice [5]; [6]): reversed the progressive weight loss induced by UCMS; UCMS-induced degradation of the coat state (mice [5]; [6]): diminished the degradation of the coat state; immobility in the TST (mice [4]): reduced immobility in the TST similar to classical antidepressants
